Literature values, collected in patent US12673067B2, “Methods, agents, and devices for local neuromodulation of autonomic nerves” (Tulavi Therapeutics, Inc., priority 2016, dated 2026).

Assays:
GPR120 = biological target: T1, GPR120 (Homo sapiens, UniProt Q5NUL3)
T1 sequence (Q5NUL3 1-361): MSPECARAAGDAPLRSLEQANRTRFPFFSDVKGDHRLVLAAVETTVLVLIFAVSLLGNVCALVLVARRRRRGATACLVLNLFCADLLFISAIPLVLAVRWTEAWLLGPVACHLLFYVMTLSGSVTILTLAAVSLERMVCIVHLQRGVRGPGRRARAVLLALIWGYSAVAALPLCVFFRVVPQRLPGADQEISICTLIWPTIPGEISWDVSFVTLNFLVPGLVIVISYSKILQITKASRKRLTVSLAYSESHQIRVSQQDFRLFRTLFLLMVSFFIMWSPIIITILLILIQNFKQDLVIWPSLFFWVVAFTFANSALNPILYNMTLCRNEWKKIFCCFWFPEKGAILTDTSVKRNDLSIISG

GPR40 = GPR40 (Homo sapiens, UniProt O14842); conditions: at 100 μM
Chain of GPR40 (O14842 whole entry): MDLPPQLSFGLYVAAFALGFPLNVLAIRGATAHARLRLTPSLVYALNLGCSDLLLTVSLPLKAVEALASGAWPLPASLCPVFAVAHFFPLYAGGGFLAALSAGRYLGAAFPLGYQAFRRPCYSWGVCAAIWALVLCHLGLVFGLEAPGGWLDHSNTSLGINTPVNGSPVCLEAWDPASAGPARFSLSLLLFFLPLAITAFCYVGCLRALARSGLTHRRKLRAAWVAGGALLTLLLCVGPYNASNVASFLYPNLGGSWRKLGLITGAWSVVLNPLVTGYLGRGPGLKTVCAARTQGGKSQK

## CC(C)=CCC/C(C)=C/CC/C(C)=C/Cc1c(O)cc(C)c(C(=O)O)c1O [Grifolic acid]
GPR120
  GPR120 agonism: Weak GPR120 partial agonist
GPR40
  GPR40 activity: without GPR40 activity
